# What was measured:
# Assay in all cases: cells
# HT = format: functional, cell-based; settings: Homo sapiens
# Description: SANGER: Inhibition of human HT cell growth in a cell viability assay.
# SNU-387 = format: functional, cell-based, Homo sapiens; settings: Homo sapiens, SNU-387
# Description: SANGER: Inhibition of human SNU-387 cell growth in a cell viability assay.
# M059J = format: functional, cell-based, Homo sapiens; settings: Homo sapiens, M059J;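 further: growth inhibition of M059J cells, read out with a cell viability assay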
# Description: SANGER: Inhibition of human M059J cell growth in a cell viability assay.
# NCI-H2126 = format: functional, cell-based, Homo sapiens; settings: Homo sapiens, NCI-H2126;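 further: growth inhibition of the cancer cell line, determined with a cell viability readout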
# Description: SANGER: Inhibition of human NCI-H2126 cell growth in a cell viability assay.
# A204 = format: functional, cell-based, Homo sapiens; settings: Homo sapiens, A204;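 further: growth inhibition of human A204 cells, read out with a cell viability assay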
# Description: SANGER: Inhibition of human A204 cell growth in a cell viability assay.
# Lu-65 = format: functional, cell-based; settings: Homo sapiens;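 further: growth inhibition of Lu-65 cancer cells, read out by a cell viability assay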
# Description: SANGER: Inhibition of human LU-65 cell growth in a cell viability assay.
# TGBC1TKB = format: functional, cell-based, Homo sapiens; settings: Homo sapiens, TGBC1TKB;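 further: growth inhibition of TGBC1TKB cells, read out by a cell viability assay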
# Description: SANGER: Inhibition of human TGBC1TKB cell growth in a cell viability assay.
# IA-LM = format: functional, cell-based, Homo sapiens; settings: Homo sapiens, IA-LM;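 further: cell viability assay measuring growth inhibition of human IA-LM cells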
# Description: SANGER: Inhibition of human IA-LM cell growth in a cell viability assay.
# NCI-H2030 = format: functional, cell-based, Homo sapiens; settings: Homo sapiens, NCI-H2030;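 further: growth inhibition of human NCI-H2030 cells, read out by a cell viability assay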
# Description: SANGER: Inhibition of human NCI-H2030 cell growth in a cell viability assay.
# NCI-H747 = format: functional, cell-based; settings: Homo sapiens;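 further: growth inhibition of human NCI-H747 cells, read out by a cell viability assay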
# Description: SANGER: Inhibition of human NCI-H747 cell growth in a cell viability assay.
# LNCaP-Clone-FGC = format: functional, cell-based, Homo sapiens; settings: Homo sapiens, LNCaP-Clone-FGC
# Description: SANGER: Inhibition of human LNCaP-Clone-FGC cell growth in a cell viability assay.
# KYSE-510 = format: functional, cell-based, Homo sapiens; settings: Homo sapiens, KYSE-510;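 further: cell viability readout used to measure how strongly growth of the cell line is suppressed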
# Description: SANGER: Inhibition of human KYSE-510 cell growth in a cell viability assay.
# DB = format: functional, cell-based; settings: Homo sapiens
# Description: SANGER: Inhibition of human DB cell growth in a cell viability assay.
# PFSK-1 = format: functional, cell-based, Homo sapiens; settings: Homo sapiens, PFSK-1;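 further: cell viability assay measuring how strongly compounds suppress growth of human PFSK-1 cells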
# Description: SANGER: Inhibition of human PFSK-1 cell growth in a cell viability assay.
# Ca-Ski = format: functional, cell-based; settings: Homo sapiens;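 further: cell viability assay measuring inhibition of Ca-Ski cell growth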
# Description: SANGER: Inhibition of human Ca-Ski cell growth in a cell viability assay.
# KYSE-450 = format: functional, cell-based; settings: Homo sapiens;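 further: cell growth inhibition measured by a viability assay in human KYSE-450 cells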
# Description: SANGER: Inhibition of human KYSE-450 cell growth in a cell viability assay.
# LXF-289 cell line = format: functional, cell-based, Homo sapiens; settings: Homo sapiens, LXF-289
# Description: SANGER: Inhibition of human LXF-289 cell growth in a cell viability assay.
# SK-MEL-28 = format: functional, cell-based; settings: Homo sapiens;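 further: growth inhibition of human SK-MEL-28 cells, read out with a cell viability assay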
# Description: SANGER: Inhibition of human SK-MEL-28 cell growth in a cell viability assay.
# KYSE-270 = format: functional, cell-based, Homo sapiens; settings: Homo sapiens, KYSE-270;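 further: cell growth inhibition measured with a viability assay in the human KYSE-270 line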
# Description: SANGER: Inhibition of human KYSE-270 cell growth in a cell viability assay.
# RT-112 = format: functional, cell-based, Homo sapiens; settings: Homo sapiens, RT-112
# Description: SANGER: Inhibition of human RT-112 cell growth in a cell viability assay.
# GCT = format: functional, cell-based, Homo sapiens; settings: Homo sapiens, GCT;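 further: GCT cell line proliferation inhibition, read out with a cell viability assay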
# Description: SANGER: Inhibition of human GCT cell growth in a cell viability assay.
# Detroit 562 = format: functional, cell-based, Homo sapiens; settings: Homo sapiens, Detroit 562;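 further: growth inhibition of human Detroit 562 cells, read out by a cell viability assay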
# Description: SANGER: Inhibition of human Detroit562 cell growth in a cell viability assay.
# DoTc2-4510 = format: functional, cell-based, Homo sapiens; settings: Homo sapiens, DoTc2-4510
# A4-Fuk = format: functional, cell-based; settings: Homo sapiens;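 further: growth inhibition of A4-Fuk cells, read out by a cell viability assay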
# Description: SANGER: Inhibition of human A4-Fuk cell growth in a cell viability assay.
# PANC-08-13 = format: functional, cell-based, Homo sapiens; settings: Homo sapiens, PANC-08-13;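 further: cell growth inhibition, measured with a cell viability assay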
# Description: SANGER: Inhibition of human PANC-08-13 cell growth in a cell viability assay.
# SCH = format: functional, cell-based, Homo sapiens; settings: Homo sapiens, SCH;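 further: growth inhibition of human SCH cells, read out in a cell viability assay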
# Description: SANGER: Inhibition of human SCH cell growth in a cell viability assay.
# TGBC24TKB = format: functional, cell-based, Homo sapiens; settings: Homo sapiens, TGBC24TKB;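 further: growth inhibition of human TGBC24TKB cells, read out with a cell viability assay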
# Description: SANGER: Inhibition of human TGBC24TKB cell growth in a cell viability assay.
# TE-12 = format: functional, cell-based; settings: Homo sapiens;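 further: growth inhibition of TE-12 cells, read out by a cell viability assay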
# Description: SANGER: Inhibition of human TE-12 cell growth in a cell viability assay.
# CAL-51 = format: functional, cell-based, Homo sapiens; settings: Homo sapiens, CAL-51;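 further: human CAL-51 cell line, growth inhibition read out via a cell viability assay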
# Description: SANGER: Inhibition of human CAL-51 cell growth in a cell viability assay.
# HCC1419 = format: functional, cell-based, Homo sapiens; settings: Homo sapiens, HCC1419;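 further: growth inhibition of human HCC1419 cells, read out as cell viability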
# Description: SANGER: Inhibition of human HCC1419 cell growth in a cell viability assay.
# ES4 = format: functional, cell-based, Homo sapiens; settings: Homo sapiens, ES4;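 further: growth inhibition of human ES4 cells, read out by a cell viability assay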
# Description: SANGER: Inhibition of human ES4 cell growth in a cell viability assay.
# SW982 = format: functional, cell-based; settings: Homo sapiens;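 further: growth inhibition of SW982 cells, read out with a cell viability assay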
# Description: SANGER: Inhibition of human SW982 cell growth in a cell viability assay.
# MKN-1 = format: functional, cell-based, Homo sapiens; settings: Homo sapiens, MKN-1;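 further: growth inhibition of human MKN1 cells, read out by a cell viability measurement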
# Description: SANGER: Inhibition of human MKN1 cell growth in a cell viability assay.
# D-392MG = format: functional, cell-based, Homo sapiens; settings: Homo sapiens, D-392MG
# FTC-133 = format: functional, cell-based, Homo sapiens; settings: Homo sapiens, FTC-133
# SW13 = format: functional, cell-based, Homo sapiens; settings: Homo sapiens, SW13;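 further: IC50 is inhibition of SW13 cell growth, read out with a cell viability assay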
# Description: SANGER: Inhibition of human SW13 cell growth in a cell viability assay.
# MHH-ES-1 = format: functional, cell-based, Homo sapiens; settings: Homo sapiens, MHH-ES-1;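 further: cell growth inhibition measured by a cell viability assay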
# Description: SANGER: Inhibition of human MHH-ES-1 cell growth in a cell viability assay.
# SCC-25 = format: functional, cell-based, Homo sapiens; settings: Homo sapiens, SCC-25;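 further: growth inhibition of SCC-25 cells, measured with a cell viability assay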
# Description: SANGER: Inhibition of human SCC-25 cell growth in a cell viability assay.
# KMOE-2 = format: functional, cell-based; settings: Homo sapiens;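 further: growth inhibition of human KMOE-2 cells, read out with a cell viability assay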
# Description: SANGER: Inhibition of human KMOE-2 cell growth in a cell viability assay.
# MFE-280 = format: functional, cell-based, Homo sapiens; settings: Homo sapiens, MFE-280;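 further: growth inhibition of MFE-280 cells, determined with a cell viability readout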
# Description: SANGER: Inhibition of human MFE-280 cell growth in a cell viability assay.
# ASPC1 = format: functional, cell-based, Homo sapiens; settings: Homo sapiens, ASPC1;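 further: growth inhibition of AsPC-1 cells, read out with a cell viability assay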
# Description: SANGER: Inhibition of human AsPC-1 cell growth in a cell viability assay.
# HC-1 = format: functional, cell-based; settings: Homo sapiens;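 further: growth inhibition of HC-1 cells measured by a cell viability assay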
# Description: SANGER: Inhibition of human HC-1 cell growth in a cell viability assay.
# NCI-H1623 = format: functional, cell-based, Homo sapiens; settings: Homo sapiens, NCI-H1623;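 further: cell viability assay used as the read-out for growth inhibition of NCI-H1623 cells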
# Description: SANGER: Inhibition of human NCI-H1623 cell growth in a cell viability assay.
# LU-139 = format: functional, cell-based; settings: Homo sapiens
# Description: SANGER: Inhibition of human LU-139 cell growth in a cell viability assay.
# LB2241-RCC = format: functional, cell-based, Homo sapiens; settings: Homo sapiens, LB2241-RCC;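 further: cell viability assay measuring how strongly the cultured human renal carcinoma line is prevented from growing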
# Description: SANGER: Inhibition of human LB2241-RCC cell growth in a cell viability assay.
# KALS-1 = format: functional, cell-based, Homo sapiens; settings: Homo sapiens, KALS-1;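 further: growth inhibition of KALS-1 cells, determined with a cell viability assay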
# Description: SANGER: Inhibition of human KALS-1 cell growth in a cell viability assay.
# HTC-C3 = format: functional, cell-based, Homo sapiens; settings: Homo sapiens, HTC-C3;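 further: inhibition of cell growth, read out with a cell viability assay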
# Description: SANGER: Inhibition of human HTC-C3 cell growth in a cell viability assay.
# CAL-12T = format: functional, cell-based, Homo sapiens; settings: Homo sapiens, CAL-12T;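 further: growth inhibition of human CAL-12T cells, read out with a cell viability assay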
# Description: SANGER: Inhibition of human CAL-12T cell growth in a cell viability assay.
# K5 = format: functional, cell-based, Homo sapiens; settings: Homo sapiens, K5
# Description: SANGER: Inhibition of human K5 cell growth in a cell viability assay.
# ATN-1 = format: functional, cell-based; settings: Homo sapiens;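 further: growth inhibition of human ATN-1 cells, read out with a cell viability assay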
# Description: SANGER: Inhibition of human ATN-1 cell growth in a cell viability assay.
# NCI-H526 = format: functional, cell-based; settings: Homo sapiens;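 further: growth inhibition of the human NCI-H526 cell line, measured by a cell viability assay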
# Description: SANGER: Inhibition of human NCI-H526 cell growth in a cell viability assay.
# TYK-nu = format: functional, cell-based, Homo sapiens; settings: Homo sapiens, TYK-nu;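 further: growth inhibition of human TYK-nu cells, read out by a cell viability assay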
# Description: SANGER: Inhibition of human TYK-nu cell growth in a cell viability assay.
smiles,measurement,setting,value
COC(=O)CNC(=O)C(=O)OC,IC50,HT,132 µM
same,IC50,SNU-387,220 µM
same,IC50,M059J,541 µM
same,IC50,NCI-H2126,1800 µM
same,IC50,A204,398 µM
same,IC50,Lu-65,2360 µM
same,IC50,TGBC1TKB,1790 µM
same,IC50,IA-LM,153 µM
same,IC50,NCI-H2030,105 µM
same,IC50,NCI-H747,> 4000 µM
same,IC50,LNCaP-Clone-FGC,3210 µM
same,IC50,KYSE-510,112 µM
same,IC50,DB,52.4 µM
same,IC50,PFSK-1,274 µM
same,IC50,Ca-Ski,157 µM
same,IC50,KYSE-450,2480 µM
same,IC50,LXF-289 cell line,260 µM
same,IC50,SK-MEL-28,569 µM
same,IC50,KYSE-270,275 µM
same,IC50,RT-112,176 µM
same,IC50,GCT,> 4000 µM
same,IC50,Detroit 562,507 µM
same,IC50,DoTc2-4510,153 µM
same,IC50,A4-Fuk,45 µM
same,IC50,PANC-08-13,1460 µM
same,IC50,SCH,> 4000 µM
same,IC50,TGBC24TKB,> 4000 µM
same,IC50,TE-12,182 µM
same,IC50,CAL-51,238 µM
same,IC50,HCC1419,> 4000 µM
same,IC50,ES4,1150 µM
same,IC50,SW982,33.7 µM
same,IC50,MKN-1,2190 µM
same,IC50,D-392MG,1570 µM
same,IC50,FTC-133,> 4000 µM
same,IC50,SW13,639 µM
same,IC50,MHH-ES-1,115 µM
same,IC50,SCC-25,1230 µM
same,IC50,KMOE-2,305 µM
same,IC50,MFE-280,1030 µM
same,IC50,ASPC1,3920 µM
same,IC50,HC-1,569 µM
same,IC50,NCI-H1623,117 µM
same,IC50,LU-139,184 µM
same,IC50,LB2241-RCC,537 µM
same,IC50,KALS-1,624 µM
same,IC50,HTC-C3,175 µM
same,IC50,CAL-12T,26.6 µM
same,IC50,K5,160 µM
same,IC50,ATN-1,601 µM
same,IC50,NCI-H526,536 µM
COc1ccc(-c2ccc3c(N4CCOC[C@@H]4C)nc(N4CCOC[C@@H]4C)nc3n2)cc1CO [AZD-8055],IC50,HT,0.294 µM
same,IC50,SNU-387,1.52 µM
same,IC50,M059J,> 2 µM
same,IC50,NCI-H2126,1.68 µM
same,IC50,A204,0.19 µM
same,IC50,Lu-65,1.26 µM
same,IC50,TGBC1TKB,1.33 µM
same,IC50,IA-LM,0.596 µM
same,IC50,NCI-H2030,1.24 µM
same,IC50,TYK-nu,0.319 µM
same,IC50,NCI-H747,0.76 µM
same,IC50,LNCaP-Clone-FGC,0.353 µM
same,IC50,KYSE-510,> 2 µM
same,IC50,DB,0.5 µM
same,IC50,PFSK-1,0.83 µM
same,IC50,Ca-Ski,> 2 µM
same,IC50,KYSE-450,0.827 µM
same,IC50,LXF-289 cell line,0.25 µM
same,IC50,SK-MEL-28,0.559 µM
same,IC50,KYSE-270,1.57 µM
same,IC50,RT-112,0.849 µM
same,IC50,GCT,1.34 µM
same,IC50,Detroit 562,1.19 µM
same,IC50,DoTc2-4510,> 2 µM
same,IC50,A4-Fuk,1.2 µM
same,IC50,PANC-08-13,0.574 µM
same,IC50,SCH,1.03 µM
same,IC50,TGBC24TKB,1.86 µM
same,IC50,TE-12,1.41 µM
same,IC50,CAL-51,0.197 µM
same,IC50,HCC1419,0.869 µM
same,IC50,ES4,0.453 µM
same,IC50,SW982,0.685 µM
same,IC50,MKN-1,> 2 µM
same,IC50,D-392MG,> 2 µM
same,IC50,FTC-133,> 2 µM
same,IC50,SW13,0.984 µM
same,IC50,MHH-ES-1,0.835 µM
same,IC50,SCC-25,1.58 µM
same,IC50,MFE-280,0.43 µM
same,IC50,ASPC1,0.738 µM
same,IC50,NCI-H1623,0.763 µM
same,IC50,LU-139,0.0233 µM
same,IC50,LB2241-RCC,0.302 µM
same,IC50,KALS-1,> 2 µM
same,IC50,HTC-C3,0.732 µM
same,IC50,CAL-12T,0.78 µM
same,IC50,ATN-1,0.706 µM
same,IC50,NCI-H526,> 2 µM
O=c1cc(-c2cccc3c2Sc2ccccc2S3)oc(N2CCOCC2)c1 [KU-55933],IC50,HT,> 10 µM
same,IC50,SNU-387,> 10 µM
same,IC50,M059J,> 10 µM
same,IC50,NCI-H2126,> 10 µM
same,IC50,A204,> 10 µM
same,IC50,TGBC1TKB,> 10 µM
same,IC50,IA-LM,> 10 µM
same,IC50,NCI-H2030,> 10 µM
same,IC50,TYK-nu,> 10 µM
same,IC50,NCI-H747,> 10 µM
same,IC50,LNCaP-Clone-FGC,> 10 µM
same,IC50,KYSE-510,> 10 µM
same,IC50,DB,> 10 µM
same,IC50,PFSK-1,> 10 µM
same,IC50,Ca-Ski,> 10 µM
same,IC50,KYSE-450,> 10 µM
same,IC50,LXF-289 cell line,> 10 µM
same,IC50,SK-MEL-28,> 10 µM
same,IC50,KYSE-270,> 10 µM
same,IC50,RT-112,> 10 µM
same,IC50,GCT,> 10 µM
same,IC50,Detroit 562,> 10 µM
same,IC50,DoTc2-4510,> 10 µM
same,IC50,A4-Fuk,> 10 µM
same,IC50,PANC-08-13,> 10 µM
same,IC50,SCH,> 10 µM
same,IC50,TGBC24TKB,> 10 µM
same,IC50,TE-12,> 10 µM
same,IC50,CAL-51,> 10 µM
same,IC50,HCC1419,> 10 µM
same,IC50,ES4,> 10 µM
same,IC50,SW982,> 10 µM
same,IC50,MKN-1,> 10 µM
same,IC50,D-392MG,> 10 µM
same,IC50,FTC-133,> 10 µM
same,IC50,SW13,> 10 µM
same,IC50,MHH-ES-1,> 10 µM
same,IC50,SCC-25,> 10 µM
same,IC50,MFE-280,> 10 µM
same,IC50,ASPC1,> 10 µM
same,IC50,NCI-H1623,> 10 µM
same,IC50,LB2241-RCC,> 10 µM
same,IC50,KALS-1,> 10 µM
same,IC50,HTC-C3,> 10 µM
same,IC50,CAL-12T,> 10 µM
same,IC50,K5,> 10 µM
same,IC50,ATN-1,> 10 µM
same,IC50,NCI-H526,> 10 µM

# Source: ChEMBL document CHEMBL1201861, “Genomics of Drug Sensitity in Cancer screening data, Wellcome Trust Sanger Institute”
